# Assay results: patent publication US4897394A, “Antiviral combinations” (Burroughs Wellcome CO., priority 1986, dated 1990)
# Tests used:
# [1] = Acute toxicity (LD50), mice, oral; details: mouse, in vivo
# Excerpt: (§1) The LD50 values for acyclovir, dilazep and dipyridamole, referred to above are as follows: […]
# [2] = tested on: herpes simplex type 1 (KOS strain); assay: Plaque reduction assay in Vero cells infected with herpes simplex type 1 (KOS strain); format: cell-based; details: single agent; for Average Plaque Count: controls = 480
# Protocol: The antiviral activity was determined using a plaque reduction assay. Petri plates were seeded with Vero cells which were then allowed to grow to confluency. […] The inhibitors, either alone or in the indicated combinations, were dissolved to give the indicated concentrations in minimal essential medium containing 2% heat inactivated fetal calf serum and 0.5% human immune serum globulin. One hour after infection the solutions (10 ml per plate) were added to the cultures. Three days later the cultures were foramlin-fixed and stained with crystal violet, and the plaques were counted.
# [3] = Acute toxicity (LD50), rats, oral; details: rat, in vivo
# Excerpt: as §1
# [4] = Human alphaherpesvirus 1, Vero, Conc. 1.0 μM
# [5] = Human alphaherpesvirus 1, Vero, Conc. 5.0 μM
Compound,Average Plaque Count ([2]; Conc. 1.0 μM),"inhibition at 1 µM [2, 4] [%]",Average Plaque Count ([2]; Conc. 5.0 μM),"inhibition at 5 µM [2, 5] [%]",further results
COc1cc(C(=O)OCCCN2CCCN(CCCOC(=O)c3cc(OC)c(OC)c(OC)c3)CC2)cc(OC)c1OC [Dilazep],442.0,8,–,–,"LD50 ([1]; male mice, oral): 3740 mg/kg"
"Nc1nc2c(ncn2COCCO)c(=O)[nH]1 [ACV, 9-[(2-hydroxyethoxy)methyl]guanine]",279.5,41.8,29.5,93.8,"LD50 ([1]; mice oral): > 10000 mg/kg; Average Plaque Count ([2]; Conc. 2.5 μM): 133.5; inhibition at 2.5 µM ([2]; Human alphaherpesvirus 1, Vero, Conc. 2.5 μM): 72.3%"
"O=[N+]([O-])c1ccc(CSc2ncnc3c2ncn3[C@@H]2O[C@H](CO)[C@@H](O)[C@H]2O)cc1 [Compound A, 6-[(4-nitrobenzyl)thio]-9-(β-D-ribofuranosyl)purine]",–,–,–,–,"Average Plaque Count ([2]; Conc. 2.0 μM): 484.0; inhibition at 2 µM ([2]; Human alphaherpesvirus 1, Vero, Conc. 2.0 μM): 0%"
OCCN(CCO)c1nc(N2CCCCC2)c2nc(N(CCO)CCO)nc(N3CCCCC3)c2n1 [Dipyridamole],–,–,474.0,1,LD50 [3]: 8400 mg/kg
